From US4933368A, “N-phenylbenzamide derivatives” (Godecke Aktiengesellschaft, priority 1983, dated 1990)

Key:
allogeneic skin grafts [1] = test: Trial I, skin graft survival test in rats (recipient Long Evans, donor Lewis), vs azathioprine + methylprednisolone; type: in vivo
Method: Route of Intragastric via stomach tube,
suspended in 0.8% Methocel
(§3) Volume: 0.01 ml per gram body weight and dose
Trial I/from Day -3 before grafting to Day +6
Trial I/10 mg/kg over 6 days, afterwards 5 mg/kg
(§4) Two allogeneic skin grafts from a donor rat are transferred to a receiving rat from an unrelated inbred strain. The panniculus carnosus attached to the graft may either be removed by dissection (suprapannicular graft) or be left on the graft (subpannicular graft). Grafting is conducted on Day 0 under light ether narcosis subsequent to shaving and cleanup of the grafting sites. The grafts are fixed on the graft receptor sites by dressing with a suitable bandage. From Day +9 a protective colar is placed on the animals, the bandage removed, and the status of the grafts daily controlled. The assessment of the graft function is conducted by means of a graduation scale, which allows for differentiation of rejection corresponding to a three-degree of severity score. The trial ends on the day when 50% of the animals of one group have rejected both grafts. The lengthening of the graft survival time in comparison to the controls is determined in days.
Recipient: Long Evans .male., Donor: Lewis .male.. Two suprapannicular grafts were transferred from a donor to a recipient.

allogeneic skin grafts [2] = test: Trial II, skin graft survival test in rats (recipient Osborne Mendel, donor Lewis), vs azathioprine; type: in vivo; settings: far smaller quantities of Substance A
Method: Route of Intragastric via stomach tube,
suspended in 0.8% Methocel
as §3
Trial II/from Day -2 before grafting to Day +9
Trial II/4-8 mg/kg daily increasing over 12 days
as §4
Recipient: Osborne Mendel .male., Donor: Lewis .male.. Two suprapannicular grafts were transferred from a donor to a recipient.

Osteosarcoma C22LR = test: Osteosarcoma C22LR, growth retardation in mice; type: in vivo, BCBA mice; settings: for Surviving Animals: n = 5
Method: Preparation: As suspension freshly prepared
before each administration
Route of Oral, suspended in 0.8%
administration: Methocel
Volume: 0.01 per gram body weight
daily for 9 days, if not
Osteosarcoma. C22LR in BCBA mice (C57B1×CBA/Rij, Fl hybrid). The tumor is subcutaneously inoculated bilaterally into the sides. It is measured at least 2×weekly in three dimensions. The terminal point is the retardation of growth. It is defined as the difference of the average time in which the volume of five to ten tumors in five treated animals reaches a given value in comparison with that of five to ten tumors in the control animals. This value was determined as four times that of the average volume at commencement of treatment.

Electro-convulsion = test: Maximal electroconvulsion test; type: in vivo; settings: Mus musculus, po; i.g., mice
Pentetrazole-convulsion = Pentetrazole-convulsion model; type: in vivo; settings: Mus musculus, po; i.g., mice
[3] = test system: Mammary adenocarcinoma 16; test: Mammary adenocarcinoma 16 (CCTM test); type: in vivo, mice; settings: SC PO, Days 1-16, 56 mg/kg
Method: The CCTM assay assesses the antitumor activity of a test agent by measurement of the treatment-induced delay of tumor growth. Tumor growth delay is used because, unlike T/C type assays, the measured parameter is independent of time.
Test animals are Fl hybrid mice derived from the inbred strain of tumor origin. After the required mice are randomized, they receive SC implants of either trocar fragments (30-50 mg) or appropriate dilutions of tumor brei on Day 0. Samples for each donor tumor or from the final brei are incubated in thioglycolate media as a check for gross contamination of the tumor material. After tumor inoculation, the test mice are rerandomized and distributed to test group as per the specific test protocol.
Survival is checked daily for each test group. Both the number dead and the number living are counted and recorded. All dead mice are autopsied to ascertain the probable cause of death (drug or tumor). Clinical signs are observed and recorded for all test groups. Individual body weights are recorded at least weekly as directed in the specific test protocol. Each tumor is measured with calipers as per the protocol (usually two to three times/week). […]
This time may be calculated as:
T,C=median time in days for the tumor in a given group to reach a predetermined evaluation size (usually 750 mg). […] These values are calculated by log/linear interpolation between the nearest tumor measurements on either side of the evaluation size. […]
All tumor-free survivors (cures) are excluded from the calculation of T-C and cell kill values. Thus, all calculated end points represent the response of the treatment failures.

BN leukemia = BN leukemia (CCLS test); type: in vivo, mice; settings: for % T/C: IV PO
Source text: (§1) The two types of assays used were the standard CCTM test for solid tumors and the CCLS test for leukemia.
The CCLS assay assesses the antitumor activity of a test agent by measurement of the treatment-induced increase in host lifespan. Only rapidly growing tumors that kill their respective hosts in less than 30 days are appropriate for life span assays.
Test animals are appropriate Fl hybrid mice derived for the inbred strain of tumor origin. After the required mice are randomized, they receive implants (IP, IV, IC, IM, or SC) of appropriately diluted ascites fluid or dilutions of tumor brei on Day 0. A sample from the final inocula is incubated in thioglycolate media as a check for gross contamination of the tumor material. After tumor inoculation, the test mice are rerandomized and distributed to test groups as per the specific test protocol.
(§2) Test agents are dissolved or suspended in any of several vehicles and are administered by the routes and treatment schedules specified on the test protocol. All animals are monitored for signs of acute toxicity and side effects.
Survival is checked daily for each test group. Both the number dead and the number living are counted and recorded. All dead mice are autopsied to ascertain the probably cause of death (drug or tumor). Clinical signs are observed and recorded for all test groups. Group body weights are recorded at least weekly as directed in the specific test protocol.
For most life span assays, any animal surviving more than 60 days is sacrificed and autopsied to determine the tumor burden present. It is possible that specific protocols involving unusual tumors or routes of tumor implantation will call for longer termination dates.
Td=tumor volume doubling time (days), calculated from the slope of a log-linear least square fit of the survival time vs inoculum curve for titrated inocula of tumor cells in untreated mice.
MLS=median life span, calculated by a method appropriate for grouped observations.
NOTE: Some adjustments in these calculations are made to make comparisons with the appropriate control cage more accurate. The slope of the titration curve (least squares fit) is used to calculate the Td for the tumor, but the life span increases of the treated animals are based only on the MLS of the control cage with the same initial inoculum (not on the least square approximation from the titration curve). This in theory reduces any effects from dilution, etc.
All tumor-free survivors (cures) are excluded from the calculation of MLS and cell kill values. Thus all calculated end points represent the response of the treatment failures.

[4] = test system: HCT-8 human colon xenograft; test: HCT-8 human colon xenograft in nude mice (CCTM test); type: in vivo
Source text: Doses just under the acutely lethal dose can be given indefinitely (for more than 30 days), during which the treated animals regain their initial weight loss.
as §1
The CCTM assay assesses the antitumor activity of a test agent by measurement of the treatment-induced delay of tumor growth. Tumor growth delay is used because, unlike T/C type assays, the measured parameter is […].
Test animals are Fl hybrid mice derived from the inbred strain of tumor origin. […]
as §2
Survival is checked daily for each test group. Both the number dead and the number living are counted and recorded. […] Clinical signs are observed and recorded for all test groups. Individual body weights are recorded at least weekly as directed in the specific test protocol. Each tumor is measured with calipers as per the protocol (usually two to three times/week). […]
Td=tumor volume doubling time (days), calculated from the slope of a long-linear least squares fit of the growth curve between 63 and 1000 mg for each control tumor. […]

[5] = test system: murine tumors and human tumor xenografts; test: Antineoplastic activity in tumor-carrying animals, general statements; type: in vivo, mice
[6] = intragastric / oral, vs untreated control

Nc1ccc(C(=O)Nc2ccccc2N)cc1 [Substance A, 4-Amino-N-(2'-aminophenyl)-benzamide] was tested, and the “effect compared with standard medication” value (allogeneic skin grafts [1]; Trial I, vs azathioprine and methylprednisolone) was “superior to an immunosuppressive standard medication comprising azathioprine and methylprednisolone”, the “effect compared with comparison medication” value (allogeneic skin grafts [1]; rats, both trials, far smaller substance quantities) was “at least equally as effective as the comparison medication” and the “effect compared with standard azathioprine” value (allogeneic skin grafts [2]) was “equally effective as the immunosuppressive standard azathioprine”. The “Surviving Animals” value (Osteosarcoma C22LR; 1 × 240 mg/kg PO) was 5/5, the “Retardation in Growth of Tumor (Days)” value (Osteosarcoma C22LR; 1 × 240 mg/kg PO, p = 0,001) was 3,1 Days and the “Retardation in Growth of Tumor (Days)” value (Osteosarcoma C22LR; 2 × 180 mg/kg PO) was 9,6 Days. For the same molecule, the “Surviving Animals” value (Osteosarcoma C22LR; 2 × 180 mg/kg PO) was 1/5, the “Retardation in Growth of Tumor (toxic death)” value (Osteosarcoma C22LR; 4 × 120 mg/kg PO) was “toxic death” and the “Surviving Animals” value (Osteosarcoma C22LR; 9 × 60 mg/kg IP, controls 5/5) was 5/5. The “Retardation in Growth of Tumor (Days)” value (Osteosarcoma C22LR; 9 × 60 mg/kg IP, p = 0,0001) was 7,8 Days, the assessment of activity (Osteosarcoma C22LR; mouse, in vivo) was “good activity” and the ED50 (Electro-convulsion) was 30 mg/kg. For the same molecule, the ED50 (Pentetrazole-convulsion) was 44 mg/kg, the “(T-C) tumor growth delay” value [3] was 11 days and the “Cell Kill Gross” value [3] was 3.0 log10. The “Cell Kill Net” value [3] was -1.2 logs, the anticancer activity (BN leukemia; BN leukemia) was “significant anticancer activity has been demonstrated and confirmed” and the “% T/C” value (BN leukemia; Days 1-5, 20 mg/kg) was 356%. The “% T/C” value (BN leukemia; Days 1-5, 30 mg/kg) was 430%, the “% T/C” value (BN leukemia; Days 7-11, 14-18, 20 mg/kg) was 335% and the “% T/C” value (BN leukemia; Days 7-11, 14-18, 21-25, 20 mg/kg) was 474%. The “% T/C” value (BN leukemia; Days 7-11, 14-18, 21-25, 28-32, 35-39, 8 mg/kg) was 343%, the anticancer activity ([4]; HCT-8 human colon tumor xenograft) was “significant anticancer activity has been demonstrated and confirmed” and the “(T-C) tumor growth delay” value ([4]; SC PO, Days 9-24, 69 mg/kg) was 13 days. For the same molecule, the “tumor regression late in an extended treatment regimen” value ([5]; after just two days' rest) was “partial regression of tumors”, the “average survival time of tumor-carrying mice” value [5, 6] was “significant increase in the average survival time” and the “retardation in tumor growth” value [5, 6] was “distinct retardation in the growth of the tumor”. For the same molecule, the “schedule dependence of activity” value ([5]; mouse, in vivo) was “schedule-dependent, with once daily treatment superior to either more highly fractionated or to intermittent regimens”, the “cures and cell kills” value ([5]; oral, refractory tumor models in mice) was “significant number of cures and cell kills” and the “anticancer activity, overall” value ([5]; spectrum of preclinical tumor models) was “significant activity against a spectrum of preclinical tumor models”.
